According to patent publication US5721223A, “Imidazo[1,2-a] Pyridinyldiacid compounds for cognitive enhancement and for treatment of cognitive disorders and neurotoxic injury” (priority 1995, dated 1998):
Counter-ions that a name gives are not always drawn.

Target: T1, glycine receptor site (Rattus norvegicus, UniProt P35439)
T1 construct: Synaptic plasma membranes (SPM) were prepared from rat forebrain; from tissue; host or cells: rat forebrain synaptic plasma membranes
Assay: Glycine binding assay ([3H]GLY)
Settings: [3H]glycine 10 nM, rat forebrain SPM
Method: Synaptic plasma membranes (SPM) were prepared from rat forebrain and stored as previously described [J. B. Monahan and J. Michel, J. Neurochem, 48, 1699-1708 (1987)]. Frozen membranes were thawed and diluted 1:20 with 0.04% Triton X-100 in 50 mM tris/acetate (pH 7.4). Following incubation at 37° C. for 30 min., the SPM were collected by centrifugation at 95,000×g for 15 min. The pellet was resuspended in 50 mM tris/acetate (pH 7.4, Triton-free) and hand-homogenized five times. The membranes were again centrifuged as above. The pellet was washed two additional times with 50 mM tris/acetate (without homogenization) and centrifuged. The final pellet was resuspended with homogenization in 50 mM tris/acetate. In the general receptor binding assay procedure, 10 nM [3H]glycine was added to the appropriate concentration of the test compounds and the assay initiated by the addition of 0.2-0.4 mg of ice cold SPM. […] Beckman MP scintillation cocktail (5 mL) containing 7 mL/liter acetic acid was then added and the samples counted on a Beckman LS 5800 liquid scintillation counter with automatic corrections for quenching and counting efficiency. […] The binding of [3H]glycine to the SPM was analyzed using Scatchard and Hill transformations and the Ki for other compounds was determined using logit-log analysis. […]

Ki: 51 µM
SMILES: O=C(O)Cc1c(C(=O)O)nc2ccccn12 [Example 3, hydrochloride]
